The nature of one series: in vivo. As to conditions: wild-type, zebrafish (Danio rerio), in vivo. The source says:
(§1) The Zebrafish (Danio rerio) has been established as a modern experimental vertebrate model for assessing the toxicity of diverse synthetic and natural small molecules (SMs). […] Thus, these previously reported methodologies were adapted in our laboratory with slight modifications for the toxicological assessment of the selected pyridophenanthridin-6-one 4f and its corresponding precursors 6f–8f (Table 2).
(§2) Wild-type adult zebrafish of both sexes were separated in two tanks (30 L each), according to their gender, at 26 ± 2 °C under natural light-dark photoperiods. Fishes were fed twice daily, and the water quality was recorded weekly, in order to acclimate the fishes for at least two weeks before experiments begin. For the reproduction of the adult fishes, small breeding tanks were set up in the evening previous to the experiment, each containing three males and one female specimen. The tanks were isolated until the next morning when the lights switched on and the natural mating occurred, without any perturbation.
(§3) The adult fishes were returned to their corresponding tank and the embryos were collected, pooled, and washed with E3 medium and transferred into a 92 mm glass Petri dish. Further, the dead, delayed, malformed, and unfertilized embryos were identified under a dissecting microscope and removed by select aspiration with a pipette. This last procedure was repeated at 12 and 20 hpf in order to remove the unfit embryos. Throughout this period of time, the embryos were kept at 28 ± 2 °C in an incubator under natural light–dark photoperiods. The selected embryos of 24 hpf from the Petri dish were gently distributed into 96-well plates, placing a single embryo and 200 μL of E3 medium per well.
(§4) For this experiment, in total 72 embryos were required per sample in order to run three independent experiments in three different plates, and each compound was evaluated three times in the same plate, allowing the evaluation of four samples per plate. […] Each embryo was examined under a dissecting microscope and the statistical analysis was made using Regression Probit analysis with SPSS for windows version 19.0. Data are expressed as the standard error of the mean (SEM) of three different experiments in triplicate.

The next series has as its system zebrafish embryos. Nature of the series: in vivo. As to conditions: toxicity scale class from zebrafish LC50 in mg/L.
From the text: as §1, §2, §3, §4

[1] abbreviates: LC50, zebrafish embryos, Figure 5 toxicity scale.
Where [2] appears, read: Zebrafish LC50, zebrafish embryos, 96 hpf, 72 h exposure, mean ± SEM.

Several values for one entry are separate records, joined by “and”; a condition that tells them apart may be missing. Equal entries are not always repeated.

In the case of `CC[C@@]1(O)C(=O)OCc2c1cc1n(c2=O)Cc2cc3ccccc3nc2-1` [Camptothecin 13, camptothecin], the LC50 at 72 h turned out to be 0.0038 µM in the series “in vivo” (setting [1]) and 0.00384 ± 0.00021 µM in “in vivo” (Zebrafish LC50, zebrafish embryos, 96 hpf, 72 h exposure, mean ± SEM, footnote c). For the same compound, the “Aquatic Animal Acute Toxicity” value in the series on zebrafish embryos was “T (super toxic 0–0.1 (T))”.
For `CCc1ccc(N(Cc2ccccc2Br)C(=O)/C=C/c2ccccc2)cc1` [7f], the 50% lethal concentration (LC50) in “in vivo” (setting [1]) was 137 µM; in “in vivo” (setting [2]) it was 137 µM and 51.2 µg/mL. The “Aquatic Animal Acute Toxicity” value in the series with zebrafish embryos is “ST (slightly toxic 10–100 (ST))”.
For the compound `CCc1ccc2c(c1)C(c1ccccc1)CC(=O)N2Cc1ccccc1Br` (stereo not shown) [6f], in “in vivo” (setting [2]), the LC50 is 151 µM and 86.5 µg/mL. In addition, in the series with zebrafish embryos, the “Aquatic Animal Acute Toxicity” value is recorded as “ST (slightly toxic 10–100 (ST))”.
Regarding `COc1ccc(O)cc1C(C)(C)C` [BHA 18, butylated hydroxyanisole], the 50% lethal concentration (LC50) stood at 90.2 µM in “in vivo” (setting [1]) and 90.2 ± 1.15 µM in the series “in vivo” (setting [2]). In addition, the “Aquatic Animal Acute Toxicity” value with zebrafish embryos was “ST (slightly toxic 10–100 (ST))”.
Take `C=CCc1ccc(O)c(OC)c1` [Eugenol 19, eugenol]: the 50% lethal concentration (LC50) was 114 µM in the series “in vivo” (setting [1]); 114 µM and 18.7 µg/mL in “in vivo” (setting [2]). In the series on zebrafish embryos, the “Aquatic Animal Acute Toxicity” value is “ST (slightly toxic 10–100 (ST))”.
Regarding `CC(C)Cn1cnc2c(N)nc3ccccc3c21` [Imiquimod 14, imiquimod], the LC50 at 72 h is 351 µM in “in vivo” (setting [1]); 351 µM and 84.3 µg/mL in the series “in vivo” (setting [2]). Also, in the series with zebrafish embryos, the “Aquatic Animal Acute Toxicity” value is given as “ST (slightly toxic 10–100 (ST))”.
With `CCc1ccc(NC(=O)/C=C/c2ccccc2)cc1` [8f], in “in vivo” (setting [2]), the LC50 was 221 µM and 43.9 µg/mL. Further, the “Aquatic Animal Acute Toxicity” value in the series with zebrafish embryos is “ST (slightly toxic 10–100 (ST))”.
`CCCCCCCCCCC[C@@H](C[C@@H]1OC(=O)[C@H]1CCCCCC)OC(=O)[C@H](CC(C)C)NC=O` [Orlistat 15, orlistat]: the median lethal concentration (LC50) in the series “in vivo” (setting [1]) is 86 µM; in the series “in vivo” (setting [2]), 87 µM and 43.1 µg/mL. The “Aquatic Animal Acute Toxicity” value in the series with zebrafish embryos was “ST (slightly toxic 10–100 (ST))”.
For the compound `CCc1cc2c3c(c1)C(c1ccccc1)CC(=O)N3Cc1ccccc1-2` (stereo not shown) [4f], the LC50 in “in vivo” (setting [1]) is 67.8 µM; in “in vivo” (setting [2]) it was 67.8 µM and 60.2 µg/mL. For the same compound, the “Aquatic Animal Acute Toxicity” value in the series on zebrafish embryos is reported as “ST (slightly toxic 10–100 (ST))”.

A word on the LC50: it is the concentration lethal to half of the exposed cells or organisms. Low values mean greater toxicity, high ones lower toxicity.

Source of the values: article PMC9741109, “Synthesis, In Silico and In Vivo Toxicity Assessment of Functionalized Pyridophenanthridinones via Sequential MW-Assisted Intramolecular Friedel-Crafts Alkylation and Direct C–H Arylation” (Molecules, 2022).
